Counter-ions that a name gives are not always drawn. Like-named read-outs stand apart in the source and are kept apart here.
Columns and labels:
[1] = especially at room temperature; cited from earlier work
[2] = test system: snoring in a nocturnal breathing obstructed person with GERD; experiment: Case study of a snoring patient with GERD; type: in vivo, human; conditions: for beneficial effect on snoring: throughout the subsequent year
From the text: A person, 5 feet 3 inches tall and moderately overweight reported a 15-20 year history of progressively increasing snoring. The intensity of their snoring was well documented by their spouse, who experienced disturbed sleep as a result of their spouse's snoring, occasionally requiring them to waken the patient in order for them to obtain relief. The patient gave no history of naso-pharyngeal structural abnormalities or surgery (other than third molar extraction) and had experienced no breathing disorder.
The patient complained to their physician of a chronic scratchiness in their throat, thought to be a result of gastroesophageal reflux disease (GERD). To treat the GERD symptoms, the patient was placed on Prevacid (Lansoprazole) 15 mg once daily.

[3] = test system: outpatients with significant snoring; experiment: Open label study on 8 outpatients with significant snoring; type: in vivo, human; conditions: 30 mg, 35 to 90 days (mean 61 days)
Description: An open label study was performed on 8 outpatients with significant snoring. The patients were treated with Prevacid 30 mg. for 30-90 days. The entry criteria were snoring with or without sleep apnea, documented by history, physical exam, and independent sleep lab studies. […] At baseline patients had all been placed on conservative nasal regimen with no improvement in their symptoms. […] At the end of treatment changes in global and spousal ratings of snoring were made along with investigator observations.
The demographics of the study group were eight males no females; a mean age of 50.6 years with a range of 32-70; a mean weight of 206 lbs with a range of 160-260; and there were 6 white, 1 black, and 1 Asian in the group. At baseline the investigator made the diagnosis of GERD in 4 patients. Spousal ratings of snoring were 3 moderate and 5 severe; 4 had moderate or severe sleep apnea; and all 8 had daytime sleepiness.
The duration of treatment ranged from 35 to 90 days with a mean of 61 days. At conclusion of the study, 7 of 8 patients had moderate or marked improvement in snoring. […] 8 of 8 patients had marked improvement in their sleep with less waking and less daytime fatigue.

[4] = cited from earlier work; for stability in acidic media: acid media
[5] = cited from earlier work
[6] = test system: heartburn symptoms and lesions caused by heartburn; conditions: according to the manufacturer AstraZeneca; cited from earlier work
[7] = +37° C., relative humidity 80%, 6 months; cited from earlier work

Structure (SMILES): COc1ccc2[nH]c([S+]([O-])Cc3ncc(C)c(OC)c3C)nc2c1 (stereo not drawn) [Omeprazole form A, omeprazole]
- thermodynamic stability versus omeprazole form B [1]: thermodynamically more stable

Structure (SMILES): NC(N)=Nc1nc(CSCCC(N)=NS(N)(=O)=O)cs1 [Pepcid AC (Famotidine), famotidine]
- beneficial effect on snoring [2]: maintained

Structure (SMILES): Cc1c(OCC(F)(F)F)ccnc1C[S+]([O-])c1nc2ccccc2[nH]1 (stereo not drawn) [Prevacid (Lansoprazole), 2-[[[3-methyl-4-(2,2,2-trifluoroethoxy)-2-pyridyl]methyl]sulfinyl]benzimidazole]
- intensity of the patient's snoring (spouse's observation) ([2]; 15 mg once daily): gradual decline
- throat scratchiness ([2]; 15 mg once daily, after beginning treatment): declined promptly
- benefit on snoring sustained for the duration of dosing ([2]; 15 mg once daily, approximately 12 months): moderate to marked benefit
- snoring after dosing was interrupted ([2]; dosing interrupted for several weeks): resumption of noticeable snoring intensity
- patients with marked improvement in their sleep with less waking and less daytime fatigue [3]: 8 of 8
- patients with moderate or marked improvement in snoring [3]: 7 of 8

Structure (SMILES): COCCCOc1ccnc(C[S+]([O-])c2nc3ccccc3[nH]2)c1C (stereo not drawn) [Rabeprazole sodium, 2-[[[4-(3-methoxypropoxy)-3-methyl-2-pyridinyl]-methyl]sulfinyl]-1H-benzimidazole sodium salt]
- stability in acidic media [4]: rapidly degraded
- stability under alkaline conditions [4]: more stable
- solubility ([5]; chloroform): freely soluble
- solubility ([5]; ethanol): freely soluble
- solubility ([5]; ether): insoluble
- solubility ([5]; ethyl acetate): freely soluble
- solubility ([5]; methanol): very soluble
- solubility ([5]; n-hexane): insoluble
- solubility ([5]; water): very soluble

Structure (SMILES): CN/C(=N/CCSCc1nc[nH]c1C)NC#N [Tagamet (Cimetidine), cimetidine]
- beneficial effect on snoring [2]: maintained

Structure (SMILES): COc1ccc2c(c1)nc([S@@+]([O-])Cc1ncc(C)c(OC)c1C)[n]2[Mg][n]1c([S@@+]([O-])Cc2ncc(C)c(OC)c2C)nc2cc(OC)ccc21.O.O.O [esomeprazole magnesium, bis(5-methoxy-2-[(S)-[(4-methoxy-3,5-dimethyl-2-pyridinyl)methyl]sulfinyl]-1H-benzimidazole-1-yl) magnesium trihydrate]
- stability in acidic media [4]: rapidly degrades
- stability under alkaline conditions [4]: acceptable stability
- solubility ([5]; water): slightly soluble
- rates of healing of certain lesions caused by heartburn versus PRILOSEC [6]: higher rates of healing
- reduction of heartburn symptoms versus PRILOSEC [6]: faster

Structure (SMILES): COc1ccc2[nH]c([S+]([O-])Cc3ncc(C)c(OC)c3C)nc2c1 (stereo not drawn) [omeprazole, 5-methoxy-2-[[(4-methoxy-3,5-dimethyl-2-pyridinyl)methyl]sulfinyl]-1H-benzimidazole]
- substance converted to degradation products [7]: about 6%

Reference: patent US20040258621A1, “Method of treating snoring and other obstructive breathing disorders” (priority 2002, published 2004)
